What was measured:
giant foxtail [1] = assay: Test A postemergence; type: in vivo, Setaria faberii; conditions: 0 to 100 scale where 0 is no effect and 100 is complete control
In short: (§1)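 Visual injury scored 0–100 (100 = complete control) against untreated controls about 10 days after treatment in a greenhouse. Test chemicals, formulated with surfactant in non-phytotoxic solvent, were sprayed on soil preemergence or on 2-10 cm, one- to two-leaf plants postemergence.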

pigweed [2] = assay: Test A postemergence; type: in vivo, Amaranthus retroflexus; conditions: 0 to 100 scale where 0 is no effect and 100 is complete control
In short: as §1

corn [3] = assay: Test A postemergence; type: in vivo, Zea mays
In short: as §1

galium = assay: Test C preemergence; type: in vivo, Galium aparine; conditions: for Galium plant response rating: preemergence
In short: (§2)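 Seeds were sown in loam–sand blend and sprayed preemergence, while plants at 1- to 4-leaf stage (2–18 cm) in peat-based medium received postemergence sprays; test chemicals were formulated in a non-phytotoxic solvent with surfactant. After 13–15 days in a greenhouse, injury was rated visually against controls, 0 (no effect) to 100 (complete control).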

corn [4] = assay: Test C preemergence; type: in vivo, Zea mays; conditions: for Corn plant response rating: preemergence
In short: as §2

lambsquarters [5] = assay: Test C preemergence; type: in vivo, Chenopodium album; conditions: for Lambsquarters plant response rating: preemergence
In short: as §2

morningglory [6] = assay: Test C preemergence; type: in vivo, Ipomoea coccinea; conditions: for Morningglory plant response rating: preemergence
In short: as §2

ragweed [7] = assay: Test C preemergence; type: in vivo, Ambrosia elatior; conditions: for Ragweed plant response rating: preemergence
In short: as §2

velvetleaf = assay: Test C preemergence; type: in vivo, Abutilon theophrasti; conditions: for Velvetleaf plant response rating: preemergence
In short: as §2

large (Lg) crabgrass = assay: Test C postemergence; type: in vivo, Digitaria sanguinalis; conditions: for Plant response rating, Crabgrass, Large: Postemergence
In short: as §2

giant foxtail [8] = assay: Test C postemergence; type: in vivo, Setaria faberii; conditions: for Plant response rating, Foxtail, Giant: Postemergence
In short: as §2

lambsquarters [9] = assay: Test C postemergence; type: in vivo, Chenopodium album; conditions: for Plant response rating, Lambsquarters: Postemergence, scale 0 to 100 (0 no effect, 100 complete control)
In short: as §2

morningglory [10] = assay: Test C postemergence; type: in vivo, Ipomoea coccinea; conditions: for Plant response rating, Morningglory: Postemergence, scale 0 to 100 (0 no effect, 100 complete control)
In short: as §2

pigweed [11] = assay: Test C postemergence; type: in vivo, Amaranthus retroflexus; conditions: for Plant response rating, Pigweed: Postemergence, scale 0 to 100 (0 no effect, 100 complete control)
In short: as §2

ragweed [12] = assay: Test C postemergence; type: in vivo, Ambrosia elatior; conditions: for Plant response rating, Ragweed: Postemergence, scale 0 to 100 (0 no effect, 100 complete control)
In short: as §2

soybean = assay: Test C postemergence; type: in vivo, Glycine max; conditions: for Plant response rating, Soybean: Postemergence, scale 0 to 100 (0 no effect, 100 complete control)
In short: as §2

waterhemp = assay: Test C postemergence; type: in vivo, Amaranthus rudis; conditions: for Plant response rating, Waterhemp: Postemergence, scale 0 to 100 (0 no effect, 100 complete control)
In short: as §2

[13] = 16 g ai/ha, scale 0 to 100 (0 no effect, 100 complete control)
[14] = 62 g ai/ha, scale 0 (no effect) to 100 (complete control)
[15] = 125 g ai/ha, scale 0 (no effect) to 100 (complete control)
[16] = Preemergence, 31 g ai/ha, scale 0 to 100, 0 no effect, 100 complete control
[17] = 16 g ai/ha, postemergence, visual rating, scale 0 to 100 (0 no effect, 100 complete control), 13 to 15 days
[18] = 31 g ai/ha, scale 0 to 100 (0 no effect, 100 complete control), 13 to 15 days
[19] = 62 g ai/ha, scale 0 to 100 (0 no effect, 100 complete control)

Structure (SMILES): CCOc1cn(-c2c(Br)cccc2Oc2ncc(Cl)cn2)nn1 [Compound 84]
- Plant response rating, Foxtail, Giant (giant foxtail [1]; 125 g ai/ha): 100
- Plant response rating, Foxtail, Giant (giant foxtail [1]; 500 g ai/ha): 100
- Plant response rating, Pigweed (pigweed [2]; 125 g ai/ha): 100
- Plant response rating, Pigweed (pigweed [2]; 500 g ai/ha): 100
- Plant response rating, Corn (corn [3]; 125 g ai/ha, 0 to 100 scale where 0 is no effect and 100 is complete control): 20
- Plant response rating, Corn (corn [3]; 500 g ai/ha, 0 to 100 scale, 0 no effect, 100 complete control): 70
- Galium plant response rating (galium; [13]): 80
- Galium plant response rating (galium; [14]): 100
- Galium plant response rating (galium; [15]): 100
- Plant response rating, Galium (galium; [16]): 90
- Corn plant response rating (corn [4]; [13]): 0
- Corn plant response rating (corn [4]; [14]): 0
- Corn plant response rating (corn [4]; [15]): 5
- Plant response rating, Corn (corn [4]; [16]): 0
- Lambsquarters plant response rating (lambsquarters [5]; [13]): 75
- Lambsquarters plant response rating (lambsquarters [5]; [14]): 100
- Lambsquarters plant response rating (lambsquarters [5]; [15]): 100
- Plant response rating, Lambsquarters (lambsquarters [5]; [16]): 85
- Morningglory plant response rating (morningglory [6]; [13]): 0
- Morningglory plant response rating (morningglory [6]; [14]): 25
- Morningglory plant response rating (morningglory [6]; [15]): 100
- Plant response rating, Morningglory (morningglory [6]; [16]): 10
- Ragweed plant response rating (ragweed [7]; [13]): 0
- Ragweed plant response rating (ragweed [7]; [14]): 60
- Ragweed plant response rating (ragweed [7]; [15]): 85
- Plant response rating, Ragweed (ragweed [7]; [16]): 60
- Velvetleaf plant response rating (velvetleaf; [13]): 50
- Velvetleaf plant response rating (velvetleaf; [14]): 85
- Velvetleaf plant response rating (velvetleaf; [15]): 100
- Plant response rating, Velvetleaf (velvetleaf; [16]): 60
- Crabgrass, Large plant response rating (large (Lg) crabgrass; [17]): 5
- Plant response rating (0 to 100), Crabgrass, Large (large (Lg) crabgrass; 125 g ai/ha, postemergence): 30
- Plant response rating, Crabgrass, Large (large (Lg) crabgrass; [18]): 5
- Plant response rating, Crabgrass, Large (large (Lg) crabgrass; [19]): 5
- Foxtail, Giant plant response rating (giant foxtail [8]; [17]): 40
- Plant response rating (0 to 100), Foxtail, Giant (giant foxtail [8]; 125 g ai/ha, postemergence): 50
- Plant response rating, Foxtail, Giant (giant foxtail [8]; [18]): 5
- Plant response rating, Foxtail, Giant (giant foxtail [8]; [19]): 5
- Plant response rating (0 to 100), Lambsquarters (lambsquarters [9]; 125 g ai/ha, postemergence): 80
- Plant response rating, Lambsquarters (lambsquarters [9]; 31 g ai/ha, 13 to 15 days): 30
- Plant response rating, Lambsquarters (lambsquarters [9]; 62 g ai/ha): 55
- Plant response rating (0 to 100), Morningglory (morningglory [10]; 125 g ai/ha, postemergence): 85
- Plant response rating, Morningglory (morningglory [10]; 31 g ai/ha, 13 to 15 days): 70
- Plant response rating, Morningglory (morningglory [10]; 62 g ai/ha): 85
- Plant response rating (0 to 100), Pigweed (pigweed [11]; 125 g ai/ha, postemergence): 85
- Plant response rating, Pigweed (pigweed [11]; 31 g ai/ha, 13 to 15 days): 50
- Plant response rating, Pigweed (pigweed [11]; 62 g ai/ha): 80
- Plant response rating (0 to 100), Ragweed (ragweed [12]; 125 g ai/ha, postemergence): 80
- Plant response rating, Ragweed (ragweed [12]; 31 g ai/ha, 13 to 15 days): 10
- Plant response rating, Ragweed (ragweed [12]; 62 g ai/ha): 40
- Plant response rating (0 to 100), Soybean (soybean; 125 g ai/ha, postemergence): 90
- Plant response rating, Soybean (soybean; 31 g ai/ha, 13 to 15 days): 55
- Plant response rating, Soybean (soybean; 62 g ai/ha): 90
- Plant response rating (0 to 100), Waterhemp (waterhemp; 125 g ai/ha, postemergence): 70
- Plant response rating, Waterhemp (waterhemp; 31 g ai/ha, 13 to 15 days): 50
- Plant response rating, Waterhemp (waterhemp; 62 g ai/ha): 70

Reference: patent publication US9695155B2, “Herbicidal substituted pyrimidinyloxy benzene compounds” (E. I. DU PONT DE NEMOURS AND COMPANY, priority 2013, dated 2017)
